These are literature values, as cited in US12349704B2, “High quality cultured meat, compositions and methods for producing same” (ALEPH FARMS LTD., priority 2018, dated 2025).

Experiment in series [1]: not given
This is another data set of the same source.

The conditions of series [2]: dietary or formulated lycopene.

For the molecule `NCC(=O)[O-].NCC(=O)[O-].[Fe+2]` [Ferrous bisglycinate], the “tolerability of dietary iron supplementation” value (approximately 15 to 120 mg iron/day, iron-deficient young children, adult males, pregnant and non-pregnant females) was “well tolerated”. Moreover, the “adverse effects in field trials of iron fortification of foods” value (between 2 and 23 mg/day of supplemental dietary iron) is on record as “without any reports of adverse effects”.
Turning to `CC1=C(/C=C/C(C)=C/C=C/C(C)=C/C=C/C=C(C)/C=C/C=C(C)/C=C/C2=C(C)CCCC2(C)C)C(C)(C)CCC1` [beta-carotene], the “daily intake that may lead to hypercarotenemia (yellowish coloration of the skin, harmless and reversible)” value in series [1] is listed as over 30 mg.
As to `CC(C)=CCC/C(C)=C/C=C/C(C)=C/C=C/C(C)=C/C=C/C=C(C)/C=C/C=C(C)/C=C/C=C(\C)CCC=C(C)C` [lycopene], the “intake levels at which no adverse effects were observed” value in series [2] is reported as “up to 3 g/(kg*d)”.
